Laboratory results as given in patent publication US8715927B2, “Inhibition of DNA polymerases to augment chemotherapeutic and antimicrobial agents” (priority 2008, dated 2014).

Legend:
[1] = tested on: COS-7 cells; assay: Mutagenesis assay: site-specifically modified pMS2 shuttle vector replicated in COS-7 cells; type: cell-based; conditions: for Deletions / Single base substitutions G to A / Single base substitutions G to C / Single base substitutions G to T: number among colonies scored, pMS2 vector, COS-7 cells; for Frequency of mutations: pMS2 vector replicated in COS-7 cells
Procedure: Mutagenesis assays were performed using a previously developed pMS2 shuttle vector/COS-7 system (Moriya, Proc. Natl. Acad. Sci. U.S.A. 90:1122-1126, 1993). In its single-stranded form, the pMS2 vector contains a hairpin loop with an internal EcoRV restriction site. Incorporation of control non-damaged oligodeoxynucleotides into this site was accomplished in the presence of a scaffold DNA according to a published method (Kanuri et al., J. Biol. Chem. 277:18257-18265, 2002). To create a single-stranded pMS2 containing site-specific interstrand crosslink, the procedure was modified as described below.
Oligodeoxynucleotides containing a model acrolein-derived site-specific interstrand crosslink (FIG. 1A and FIG. 1B) were designed in such a way that peripheral regions of the longer strands (36-mer) were complementary to the vector sequences immediately adjacent to the EcoRV site. A circular single-stranded pMS2 vector (approximately 15 pmol) was digested with 40 units of EcoRV (New England BioLabs) for 3 hours at 37° C. to generate a linear DNA. 5′-phosphorylated crosslinked inserts (60 pmol) were added to the linear single-stranded pMS2 (15 pmol), and ligated using 60 units of T4 DNA ligase (New England BioLabs) for 48 hours at 4° C. To obtain double-stranded pMS2 vectors, the 36-mer strand of the crosslink or the scaffold oligodeoxynucleotide in control DNA was extended using 5 units of T4 DNA polymerase (New England BioLabs) and 1 mM dNTPs at 37° C. for 1 hour. A newly-synthesized strand was concomitantly sealed using 5 units of T4 DNA ligase (New England BioLabs). The creation of double-stranded pMS2 was verified by PstI (New England BioLabs) digestion.
Transfection of pMS2 vector into COS-7 cells, isolation of progeny DNA, selection of individual clones by E. coli transformation, and differential hybridization analyses were performed as previously described (Moriya, Proc. Natl. Acad. Sci. U.S.A. 90:1122-1126, 1993; Kanuri et al., J. Biol. Chem. 277:18257-18265, 2002).
Previous studies have established that in human cells, crotonaldehyde-mediated N^2-N^2-guanine ICLs were repaired mostly (>94%) in an error-free manner (Liu et al., Biochemistry 45:12898-12905, 2006). Since acrolein-mediated ICLs are structurally similar to crotonaldehyde-mediated ICLs, it is possible that model acrolein-derived N^2-N^2-guanine ICL (FIG. 1A) would not be highly mutagenic when plasmid vectors containing this lesion were replicated in mammalian cells. In order to test this, oligodeoxynucleotides were constructed to contain a site-specific ICL in either CpG or GpC sequence contexts (FIG. 1B) and engineered into a double-stranded DNA shuttle vector (pMS2). The vector was replicated in COS-7 cells, and progeny DNAs were analyzed to determine frequency and types of mutations. In both the CpG and GpC sequence contexts, the mutation frequencies were very low, 3.0% and 3.2%, respectively (Table 2).

[2] = biological target: avidin (Gallus gallus, UniProt P02701); conditions: non-covalent interaction; cited from earlier work
[3] = biological target: E. coli DNA pol IV (Escherichia coli, UniProt Q47155); conditions: −10 primer, 30-minute reactions, 37° C.
Procedure: The primer extension assays were conducted in a 10 μl reaction volume containing pol II or pol IV, 5 nM primer-template, 5 mM MgCl2, 100 μM dNTPs, 25 mM Tris-HCl (pH 7.5), 25 mM DTT, 0.5 mg/ml BSA and 10% glycerol. Reactions were carried out at 37° C. for 30 minutes followed by termination of the reaction with a solution containing 95% formamide, 10 mM EDTA and 0.03% (w/v) xylene cyanol and 0.03% (w/v) bromophenol blue. DNA replication products were separated through a 15% denaturing polyacrylamide gel at 2000 V and later analyzed on a Phosphor Imager (GE Healthcare).

[4] = biological target: T1, E. coli DNA pol II (Escherichia coli, UniProt P21189); assay: Primer extension assay by E. coli DNA pol II; type: biochemical; conditions: pol II 0.3 nM, time course
T1 construct: made in house
Procedure: Control, non-damaged and ICL-containing DNA substrates were used to analyze replication from a −10 primer by pol II (FIG. 7A) and pol IV (FIGS. 7B and 7C). Using the non-damaged primer-template substrates pol II catalyzed a highly processive polymerization to yield full-length primer extension products. […] ICL bypass by pol II was not observed even when reactions were conducted with increased enzyme concentrations (up to a 1000-fold excess relative to DNA substrate).

avidin, sequence (P02701 25-152, species assumed): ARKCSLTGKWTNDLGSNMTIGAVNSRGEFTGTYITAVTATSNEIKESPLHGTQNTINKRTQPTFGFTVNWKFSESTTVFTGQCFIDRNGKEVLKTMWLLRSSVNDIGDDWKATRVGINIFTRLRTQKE
E. coli DNA pol IV, sequence (Q47155 whole entry): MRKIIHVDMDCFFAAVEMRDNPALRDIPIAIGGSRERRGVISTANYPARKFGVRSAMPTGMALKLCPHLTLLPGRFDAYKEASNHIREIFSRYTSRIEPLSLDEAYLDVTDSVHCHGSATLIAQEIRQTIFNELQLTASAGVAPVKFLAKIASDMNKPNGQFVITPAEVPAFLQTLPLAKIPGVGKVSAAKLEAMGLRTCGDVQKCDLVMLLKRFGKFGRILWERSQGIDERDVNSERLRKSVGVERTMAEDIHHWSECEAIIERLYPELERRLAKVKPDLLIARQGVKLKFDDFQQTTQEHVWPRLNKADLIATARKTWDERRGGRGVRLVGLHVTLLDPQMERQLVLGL
T1 sequence (P21189 whole entry): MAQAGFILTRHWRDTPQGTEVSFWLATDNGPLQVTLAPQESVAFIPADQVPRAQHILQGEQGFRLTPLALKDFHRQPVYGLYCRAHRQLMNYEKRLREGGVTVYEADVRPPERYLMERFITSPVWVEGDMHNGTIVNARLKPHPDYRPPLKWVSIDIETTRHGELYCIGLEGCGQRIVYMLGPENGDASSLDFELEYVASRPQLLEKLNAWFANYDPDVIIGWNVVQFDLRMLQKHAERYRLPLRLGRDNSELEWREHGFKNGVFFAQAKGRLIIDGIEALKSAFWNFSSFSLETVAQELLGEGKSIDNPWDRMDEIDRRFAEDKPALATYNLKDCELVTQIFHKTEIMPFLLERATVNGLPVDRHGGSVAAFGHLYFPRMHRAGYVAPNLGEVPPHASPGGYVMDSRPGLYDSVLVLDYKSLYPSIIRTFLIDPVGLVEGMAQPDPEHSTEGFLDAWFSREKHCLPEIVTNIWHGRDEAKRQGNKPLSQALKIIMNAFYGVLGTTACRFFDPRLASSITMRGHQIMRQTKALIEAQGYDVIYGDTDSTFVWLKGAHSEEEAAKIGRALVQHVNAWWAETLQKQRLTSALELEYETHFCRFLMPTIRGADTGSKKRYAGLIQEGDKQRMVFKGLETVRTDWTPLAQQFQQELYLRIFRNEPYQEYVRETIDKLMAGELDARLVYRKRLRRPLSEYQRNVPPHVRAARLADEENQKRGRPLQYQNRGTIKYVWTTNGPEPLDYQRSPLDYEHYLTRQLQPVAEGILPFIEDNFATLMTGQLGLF

Compound | Deletions [1] | Single base substitutions G to A [1] | Single base substitutions G to C [1] | Single base substitutions G to T [1] | Frequency of mutations [1] [%] | Ka of avidin-biotin complex [2] | replication by increasing concentrations of pol IV [3] | replication from −10 primer by pol II [4]
CpG ICL: SEQ ID NO: 1 and 2 joined by G-(CH2)3-G; model acrolein-derived N2-N2-guanine ICL in CpG context (chain 1 GCTAGCGAGTCC; chain 2 CCTGCAAGCGATGGACTCGCTAGCATCGCTGGTACC; listed as DNA, chemistry not fully specified) | 0 | 0 | 0 | 2 | 3.0 |  |  | 
O=C(O)CCCC[C@@H]1SC[C@@H]2NC(=O)N[C@@H]21 [biotin] |  |  |  |  |  | 10^15 M^−1 |  | 
ICL1: crosslinked oligodeoxynucleotide, SEQ ID NO: 5 and 6 joined by G-(CH2)3-G; models DNA product of dual incision around the ICL (chain 1 GATGCTANCYTGTC; chain 2 AGCGATAGACACYATAGCATCGCTGGTACCGACTCG; crosslinked oligodeoxynucleotide, G-(CH2)3-G interstrand crosslink, further chemistry not given here) |  |  |  |  |  |  | very poor strand displacement synthesis | unable to carry out effective strand-displacement synthesis
GpC ICL: SEQ ID NO: 3 and 4 joined by G-(CH2)3-G; model acrolein-derived N2-N2-guanine ICL in GpC context (chain 1 GCTGAGCGATCC; chain 2 CCTGCAAGCGATGGATCGCTCAGCATCGCTGGTACC; listed as DNA, chemistry not fully specified) | 5 | 4 | 1 | 1 | 3.2 |  |  | 
